Structures can show the parent of a compound that is named as a salt. Where two headings read alike, the source gives them in different places.
Experiments:
[1] = test system: J2 HIE monolayers; experiment: Cytotoxicity by LDH assay in J2 HIE monolayers; conditions: 24 hpi; for (%) Cytotoxicity: compound 10 μM, n = 1, LDH assay, J2 HIE monolayers infected with GII.4 HuNoV, normalized to DMSO control
[2] = test system: GII.4 HuNoV; experiment: GII.4 HuNoV infection of HIE monolayers, viral genome equivalents by RT-qPCR; assay type: cell-based, human norovirus; conditions: GII.4 HuNoV, 24 hpi; for (%) HuNoV GEs / activity at 10 µM: compound 10 μM, n = 1, J2 HIE monolayers, normalized to DMSO control; for activity at 10 µM: Norovirus, 24 h, read-out: (%) HuNoV GEs
[3] = test system: J2 HIE monolayers

Row | Structure (SMILES) | (%) Cytotoxicity [1] [%] | activity at 10 µM [2] [%] | (%) Cytotoxicity ([3]; human, 24 h, 10 μM) [%] | other results
1 | COc1ccc([C@H]2OC[C@H]3[C@@H]2CO[C@H]3c2ccc(O[C@@H]3O[C@H](CO)[C@@H](O)[C@H](O)[C@H]3O)c(OC)c2)cc1OC [Forsythin] | 1.24 |  |  | (%) HuNoV GEs [2]: 52.42%
2 | O=C(/C=C\n1cnc(-c2cc(C(F)(F)F)cc(C(F)(F)F)c2)n1)NNc1ccccn1 [Verdinexor] | 10.81 | 142 |  | 
3 | O=c1c2ccccc2[se]n1-c1ccccc1 [Ebselen] | 2.77 | 96.7 |  | 
4 | Cl.N=C(N=C(N)N)N1CCOCC1 [Moroxydine hydrochloride] | -1.11 |  |  | (%) HuNoV GEs [2]: 119.22%
5 | O=C(Nc1ccc(O)cc1)c1ccccc1O [Osalmid] | 3.16 | 52.1 |  | 
6 | CC[n+]1c(-c2ccccc2)c2cc(N)ccc2c2ccc(N)cc21 [Ethidium bromide] | -1.16 | 21.1 |  | 
7 | CC(C)=O.COC(=O)N[C@H](C(=O)N1CC2(CC2)C[C@H]1c1ncc(-c2ccc3c(c2)C(F)(F)c2cc(-c4ccc5nc([C@@H]6[C@H]7CC[C@H](C7)N6C(=O)[C@@H](NC(=O)OC)C(C)C)[nH]c5c4)ccc2-3)[nH]1)C(C)C [Ledipasvir acetone] | 6.17 |  |  | (%) HuNoV GEs [2]: 133.29%
8 | COc1cc(O)c(CC=C(C)C)c(O)c1C(=O)/C=C/c1ccc(O)cc1 [Xanthohumol] | 2.40 | 67.3 |  | 
9 | CC(C)c1nc(CN(C)C(=O)N[C@@H](CCN2CCOCC2)C(=O)N[C@H](CC[C@H](Cc2ccccc2)NC(=O)OCc2cncs2)Cc2ccccc2)cs1 [Cobicistat] | -2.34 | 19.8 |  | 
10 | C[C@@]1(O)[C@H](O)[C@@H](CO)O[C@H]1n1ccc(N)nc1=O [2-CMC, 2′-C-methylcytidine] |  |  |  | cytotoxicity ([1]; 389 μM, J2 monolayers): without any cytotoxicity; effect on HuNoV infection ([2]; 389 μM, J2 monolayers, positive control): completely blocked viral infection
11 | CCOC(=O)c1c(CSc2ccccc2)n(C)c2cc(Br)c(O)c(CN(C)C)c12.Cl [Arbidol hydrochloride] | 15.58 |  |  | (%) HuNoV GEs [2]: 16.88%
12 | Cc1cc(C)c(Nc2ccnc(Nc3ccc(C#N)cc3)n2)c(C)c1 [Dapivirine] | 0.74 | 24.8 |  | 
13 | O=C1CCC[C@@H]2[C@H]3CCC[N+]4([O-])CCC[C@@H](CN12)[C@@H]34 (stereo partly drawn) [Oxymatrine] | 2.33 | 56.1 |  | 
14 | Cc1nnc(C(=O)NC(C)(C)c2nc(C(=O)NCc3ccc(F)cc3)c(O)c(=O)n2C)o1 [Raltegravir] | 1.45 | 49.3 |  | 
15 | CC(C)(C)C#Cc1cc(N(C(=O)[C@H]2CC[C@H](C)CC2)[C@H]2CC[C@H](O)CC2)c(C(=O)O)s1 [Lomibuvir] | -1.75 | 87.6 |  | 
16 | NC(=O)c1nc(F)c[nH]c1=O [Favipiravir] | -1.51 | 81 |  | 
17 | CCOC(=O)CCC(=O)O[C@H]1[C@H](O[C@@H]2[C@@H](C)[C@H](O[C@H]3C[C@@](C)(OC)[C@@H](O)[C@H](C)O3)[C@@H](C)C(=O)O[C@H](CC)[C@@](C)(O)[C@H](O)[C@@H](C)C(=O)[C@H](C)C[C@@]2(C)O)O[C@H](C)C[C@@H]1N(C)C [Erythromycin ethylsuccinate] | 0.23 | 107 |  | 
18 | CCOC(=O)c1c(C)n(C)c2ccc(O)cc12 [Mecarbinate] | 0.93 |  |  | (%) HuNoV GEs [2]: 102.13%
19 | CN[C@@H]1[C@H](O)[C@H](NC)[C@H]2O[C@@]3(O)C(=O)C[C@@H](C)O[C@H]3O[C@@H]2[C@H]1O.Cl.Cl [Spectinomycin dihydrochloride] | -1.44 |  |  | (%) HuNoV GEs [2]: 109.17%
20 | COc1cc2ncnc(Nc3cccc(Cl)c3)c2cc1OC [AG-1478] | 84.88 |  |  | 
21 | Nc1ccn([C@@H]2CS[C@H](CO)O2)c(=O)n1 [Lamivudine] |  | 118 | 0.86 | 

Row | Structure (SMILES) | (%) Cytotoxicity [1] [%] | activity at 10 µM [2] [%] | (%) Cytotoxicity ([3]; human, 24 h, 10 μM) [%] | other results
22 | CC1(C)O[C@H]2CC(=O)OC[C@]23[C@H]2CC[C@@]4(C)[C@H](c5ccoc5)OC(=O)[C@H]5O[C@]54[C@]2(C)C(=O)C[C@@H]13 [Limonin] |  | 59.9 | 0.73 | 
23 | CC1(C)S[C@@H]2[C@H](NC(=O)[C@H](N)c3ccccc3)C(=O)N2[C@H]1C(=O)O [Ampicillin Trihydrate] |  | 100 | 1.14 | 
24 | Clc1ccc(COC(Cn2ccnc2)c2ccc(Cl)cc2Cl)cc1 (stereo not drawn) [Econazole] |  | 95.8 | 7.35 | 
25 | Nc1nc(=O)n([C@@H]2CS[C@H](CO)O2)cc1F [Emtricitabine] |  | 55.5 | 2.80 | 
26 | CC(C)CN(C[C@@H](O)[C@H](Cc1ccccc1)NC(=O)O[C@H]1CCOC1)S(=O)(=O)c1ccc(N)cc1 [Amprenavir] |  | 15.9 | -0.21 | 
27 | C[C@@H]1CC[C@H]2[C@@H](C)C(=O)O[C@@H]3O[C@@]4(C)CC[C@@H]1[C@]32OO4 [Artemisinin] |  | 51.7 | 1.63 | 
28 | CN(C)CC[C@@H](c1ccc(Cl)cc1)c1ccccn1 [Dexchlorpheniramine Maleate] |  | 63.6 | -3.40 | 
29 | O=C(O)c1ccccc1C(=O)Nc1ccc(S(=O)(=O)Nc2nccs2)cc1 [Phthalylsulfathiazole] |  | 44 | 2.05 | 
30 | CCOC(=O)CCc1c(C)nc2c(c(C)nn2-c2ccc(C)cc2)c1C [C430-0518] |  |  |  | (%) HuNoV GEs [2]: 170.30%; (%) Cytotoxicity [3]: -1.01%
31 | CC(=O)N(CC(O)CO)c1c(I)c(C(=O)NCC(O)CO)c(I)c(C(=O)NCC(O)CO)c1I (stereo not drawn) [Iohexol] |  | 55.3 | 1.11 | 
32 | OC[C@H]1O[C@@H](O[C@@H]2OC=C[C@H]3[C@H](O)[C@@H]4O[C@]4(CO)[C@@H]23)[C@H](O)[C@@H](O)[C@@H]1O [Catalpol] |  | 104 | 3.07 | 
33 | O=C1c2cccc(O)c2C(=O)c2c(O)cc(CO)cc21 [Aloe-emodin] |  | 253 | 0.59 | 
34 | COC(=O)N[C@H](C(=O)N[C@@H](Cc1ccccc1)[C@@H](O)CN(Cc1ccc(-c2ccccn2)cc1)NC(=O)[C@@H](NC(=O)OC)C(C)(C)C)C(C)(C)C [Atazanavir] |  | 66.4 | 0.72 | 
35 | O=C(O)P(=O)(O)O [Foscarnet sodium] |  | 88.5 | 1.07 | 
36 | CN(C)c1ccc(C(=C2C=CC(=[N+](C)C)C=C2)c2ccc(N(C)C)cc2)cc1 [Crystal Violet] |  | 14.5 | 55.49 | 
37 | CCn1cc(C(=O)O)c(=O)c2cc(F)c(N3CCNCC3)nc21 [Enoxacin] |  | 12.5 | 0.62 | 
38 | O=c1[nH]c(=O)n([C@H]2C[C@H](O)[C@@H](CO)O2)cc1F [Floxuridine] |  | 12.6 | 0.65 | 
39 | CC(C)[C@H](N)C(=O)OCC(CO)OCn1cnc2c(=O)nc(N)[nH]c21 (stereo partly drawn) [Valganciclovir hydrochloride] |  | 189 | 0.33 | 
40 | C=C(C)[C@@H]1CC[C@]2(CO)CC[C@]3(C)[C@H](CC[C@@H]4[C@@]5(C)CC[C@H](O)C(C)(C)[C@@H]5CC[C@]43C)[C@@H]12 [Betulin] |  | 69.8 |  | (%) Cytotoxicity ([3]; human): 4.24%
41 | CCOC(=O)c1cccc(NC(=O)CCn2nc(C)c(S(=O)(=O)N3CCCCC3)c2C)c1 [G402-0849] |  |  |  | (%) HuNoV GEs [2]: 158.24%; (%) Cytotoxicity [3]: 1.12%
